Test results published in publication PMC10823514, “Target Identification of a Class of Pyrazolone Protein Aggregation Inhibitor Therapeutics for Amyotrophic Lateral Sclerosis” (ACS Central Science, 2023).
“Also recorded” adds a separate entry of the source. Where two headings read alike, the source gives them in different places.

Tests used:
PC12 SOD1^G93A cells [1] = settings: neuroprotection against MG-132-induced SOD1^G93A toxicity in PC12 cells, cited from earlier work
[2] = parameters: method as in PMID 23828940; settings: cell lysate, original CETSA protocol; cited from earlier work
[3] = biological target: T1, 25 kDa protein band in PC12 SOD1^G93A cells (Rattus norvegicus, UniProt P62260); assay: Competition of PRAPP photoaffinity labeling of the 25 kDa band in PC12-SOD1^G93A cells; type: binding; settings: for concentration-dependent disappearance of the 25 kDa protein band in competition with PRAPP: scenario 1
T1 construct: we identified a 25 kDa covalently modified protein band in the PC12 SOD1^G93A cell line; endogenous in cells; host or cells: PC12-SOD1^G93A cells (live-cell UV photolabeling, then lysis)
T1 sequence (P62260 1-255): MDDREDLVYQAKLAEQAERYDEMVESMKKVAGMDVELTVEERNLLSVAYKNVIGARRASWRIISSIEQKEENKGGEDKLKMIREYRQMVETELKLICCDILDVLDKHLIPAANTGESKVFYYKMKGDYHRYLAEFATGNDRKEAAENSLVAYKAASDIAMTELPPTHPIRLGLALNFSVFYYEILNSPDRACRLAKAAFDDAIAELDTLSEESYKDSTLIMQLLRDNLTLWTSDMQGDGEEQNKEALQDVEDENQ
Method: PC12-SOD1^G93A cells were cultured and grown to 90% confluency (in 6-well plates) and washed once with PBS followed by the addition of serum medium containing the appropriate analyte at the indicated concentrations. Three incubation scenarios were studied (at 37 °C): Scenario 1) 12 h preincubation with PRAPP in the absence of MG-132; Scenario 2) 12 h preincubation with PRAPP in the absence of MG-132 followed by an additional 24 h incubation (control); and Scenario 3) 12 h preincubation with PRAPP followed by the addition of MG-132 (100 nM) and an additional 24 h incubation. After incubation, the medium was discarded and cells were washed with PBS (1 × 300 μL). Fresh serum-free medium was added, and the cells were irradiated with UV light (312 nm, 120 V, 60 Hz, 0.2 A [Spectroline model EB-160C], distance ∼4 cm) for 15 min. The medium was removed, cells were washed with PBS (2 × 500 μL), and 200 μL of lysis buffer containing Tris HCl (25 mM, pH 7.6), NaCl (150 mM), 1% NP40, 1% sodium deoxycholate, 0.1% SDS, and protease inhibitor cocktail (Sigma-Aldrich, 1:100 v/v) was added to each well. Complete lysis was observed by a microscope after 10 min at 4 °C with agitation. Each lysate was centrifuged at 4 °C for 5 min at 13,000 rpm, and the resulting supernatant was concentrated with a centrifugal filter (Amicon Ultra Centrifugal Filters 3K cutoff, Millipore), normalized to 1.0 mg/mL by the Bradford assay, and analyzed immediately or stored at −80 °C for subsequent analysis.
In a darkened (wrapped with aluminum foil) Eppendorf tube, each lysate (30 μL [30 μg]) was incubated with 10 μL of the freshly prepared “click” premix containing CuSO4 (5 mM), sodium ascorbate (5 mM), TBTA (200 μM), and N3–Alexa-647 (50 μM) were added to PBS (50 mM, pH 7.4). The corresponding final concentrations within the lysate click incubation were: CuSO4 (1.25 mM), sodium ascorbate (1.25 mM), TBTA (50 μM), and N3–Alexa-647 (12.5 μM). The mixture was vortexed briefly and incubated for 1.5 h at 37 °C in the dark. NuPAGE LDS sample loading buffer (4 × 13 μL) was added, and the mixture was denatured in boiling water for 10 min. SDS-PAGE was performed on Novex Bis-Tris gel 4–12% with MES SDS running buffer (90 V constant for 30 min followed by 100 V for 90 min; load volume = 25 μL). Protein standards that gave appropriate visible and fluorescent bands for our application included the BioRad Precision Plus All Blue Protein Standard and Novex Pre-Stained Protein Standard. In-gel fluorescence was monitored (excitation λ = 635 nm; emission λ = 670 nm) using a Typhoon 9400 (GE Healthcare) fluorimager. Densitometric analysis and image refinement were carried out as needed using ImageJ software (NIH, open source). The contrast and brightness of images were modified using ImageJ and/or Microsoft Word to enhance visualization for publication purposes.

[4] = system: 25 kDa covalently modified band in HAP1 cells; assay: Photoaffinity labeling with HAP1 wild-type and Hsp27 knockout cells; type: binding; settings: wild-type (WT) HAP1 cells
From the text: First, we conducted photoaffinity labeling studies with wild-type (WT) HAP1 cells to verify the existence of the 25 kDa covalent modification that we observed in PC12 cells.
Figure 7 Photoaffinity Labeling Experiments with HAP1 cells. […] The nonspecific background modifications remain unchanged with increasing concentration of P3, further confirming the 25 kDa covalently modified band as a true target; (B) comparison of the photoaffinity labeling experiments with HAP1 wild-type (WT) cells and Hsp27 knockout (KO) cells at 15 μM PRAPP concentration.

PC12 SOD1^G93A cells [5] = assay: Neuroprotection against MG-132-induced toxicity in PC12 cells expressing mutant SOD1^G93A (calcein-AM viability); type: cell-based; settings: Rattus norvegicus, PC-12, MG-132-induced toxicity, inactive photoreactive controls, read-out: EC50
Method: With this information in hand, we implemented a phenotypic drug discovery approach to identify a novel therapeutic for treating ALS. The study employed a rat PC12 cell-based assay that expresses SOD1^G93A mutation for screening a chemical library of more than 50,000 compounds to identify promising hits (Figure 1 compounds 3 and 4). The hits are based on attenuating proteasome inhibitor MG-132-induced SOD1^G93A cellular toxicity.
Viability EC50 values were determined according to the previously reported assay procedure.[43] Briefly, PC12 cells were seeded at 15,000 cells/well in 96-well plates, and the medium was changed to remove the doxycycline 4 days prior to compound addition. Compounds were assayed in 12-point dose–response experiments to determine the potency and efficacy. The highest compound concentration tested was 32 μM, which was decreased by half with each subsequent dose. After a 24 h incubation with the analytes, MG-132 (400 nM) was added and the cells were incubated at 37 °C for 24 h. The cells were washed twice with PBS. Calcein-AM was added at a final concentration of 1 μM for 20 min at room temperature, and the fluorescence intensity was read in a POLARstar fluorescence plate reader (BMG). EC50 values were determined by standardizing fluorescent signal to DMSO treated controls. […] The presented data represent the mean average of duplicate experiments.

14-3-3-E = biological target: T2, 14-3-3-E (Homo sapiens, UniProt P62258); assay: Fluorescent thermal shift assay (FTSA) with 14-3-3-E; type: binding; settings: SYPRO orange
T2 construct: His-tag (TEV-cleavable) (cleaved yes); host or cells: E. coli (BL21)
T2 sequence (P62258 1-255): T1 sequence (P62260 1-255)
Method: His-tagged 14-3-3-E, B, and H plasmids were purchased from Addgene (plasmid ID# 31562, 39128, and 38814, respectively). E. coli (BL21) were transformed with extracted plasmids via heat shock and plated on selected media. Individual colonies were selected, grown, and sequenced to confirm gene presence. 1 L cultures were grown to an OD600 of 0.6 at 37 °C and 220 rpm. Protein expression was induced with 1 mM IPTG and expressed for 12 h at 100 rpm and room temperature (approximately 25 °C). Cells were spun down at 4000 rpm for 15 min at 4 °C and resuspended in lysis buffer containing 50 mM Tris (7.4), 150 mM NaCl, 0.08% DDM, 5 mM imidazole, and 5% glycerol (with an EDTA-free complete mini protease inhibitor cocktail). Cells were lysed via sonication, and the lysate was separated from cell debris by centrifugation at 15,000 rpm, 4 °C, for 45 min. The His-tagged protein was purified using QIAGEN Ni-NTA superflow columns, and the His-tag was removed with TEV protease. His-tag-removed proteins were further purified by size exclusion chromatography. His tag removal and size exclusion chromatography purification were done at the Northwestern University Protein Production core. 14-3-3-Q and 14-3-3-G proteins were purchased from Abchem (catalog numbers ab85270 and ab53869, respectively).
All of the FTSA experiments were conducted in HEPES buffer (60 mM HEPES, 150 mM NaCl, pH 7.4). A DMSO balanced 8-point dilution series of the compound in HEPES buffer was prepared in a 96-well assay plate (200, 100, 50, 25, 12.5, 6.25, 3.125, and 0 μM). Then, a 5 μL volume of the dilution series was transferred to a 384-well PCR plate using a multichannel pipet, and the plate was centrifuged at 1000 rpm for 2 min (the plate was covered with an adhesive aluminum seal). The protein sample was premixed at a concentration of 0.04 μg/μL with a 5X concentration of SYPRO orange in HEPES buffer, and a 5 μL aliquot was added to the compound wells. The plate was covered with an optical adhesive seal and was shaken for 2 min, followed by centrifugation at 1000 rpm for 2 min. The thermal scan was performed from 20 to 90 °C with a temperature gradient of 0.5 °C/min. The fluorescence was measured on a Bio-Rad CFX384 real-time PCR instrument.

[6] = hits and leads of the authors' earlier work, read-out: EC50

SMILES: Cc1cc(SCc2cc(=O)[nH][nH]2)c(C)cc1Cl [compound 4]
- EC50 (PC12 SOD1^G93A cells [1]; [6]): 0.4 µM

SMILES: CN(Cc1cnc2nc(N)nc(N)c2n1)c1ccc(C(=O)N[C@@H](CCC(=O)O)C(=O)O)cc1 [methotrexate]
- drug concentration of maximum response in ITDR CETSA [2]: 100 to 250 µM

SMILES: CN(Cc1cc(Cl)cc(Cl)c1)Cc1cc(=O)[nH][nH]1 [P3]
- competitor to PRAPP ratio at complete disappearance of the band ([3]; 30 μM PRAPP): 32
- EC50 ([3]; 30 μM PRAPP, scenario 1, n = 2, read-out: EC50 for the competition with PRAPP (25 kDa band intensity)): 26.7 µM
- competition of PRAPP labeling, band 1 around 25 kDa [4]: concentration-dependent disappearance
- EC50 (PC12 SOD1^G93A cells [1]; leads of the authors' earlier work, read-out: EC50 (NP = neuroprotection)): 0.4 µM

SMILES: O=C1CC(=O)CC(c2ccc(F)cc2)C1 [compound 3]
- EC50 (PC12 SOD1^G93A cells [1]; [6]): 0.8 µM

SMILES: Cc1nc2ccc(CN(C)c3ccc(C(=O)N[C@@H](CCC(=O)O)C(=O)O)s3)cc2c(=O)[nH]1 [raltitrexed]
- drug concentration of maximum response in ITDR CETSA [2]: 100 to 250 µM

SMILES: C#CCN(Cc1c(F)c(F)c(N=[N+]=[N-])c(F)c1F)Cc1cc(=O)n(C(C)=O)n1C(C)=O [IPC1, 1,1′-(5-(((4-Azido-2,3,5,6-tetrafluorobenzyl)(prop-2-yn-1-yl)amino)methyl)-3-oxo-1H-pyrazole-1,2(3H)-diyl)bis(ethan-1-one)]
- EC50 (PC12 SOD1^G93A cells [5]): > 16 µM

SMILES: CC(Oc1cc(C(F)(F)F)cc(C(F)(F)F)c1)C1CC(=O)CC(=O)C1 (stereo not drawn) [P1]
- concentration-dependent disappearance of the 25 kDa protein band in competition with PRAPP ([3]; 30 μM PRAPP): not compete out the 25 kDa covalently modified band in a concentration -dependent manner; also recorded: did not show a quantifiable concentration-dependent disappearance
- 25 kDa band intensity in competition with PRAPP ([3]; 480 μM P1 concentration): slight reduction of the 25 kDa band intensity
- Tm shift (ΔTm) (14-3-3-E): did not show a Tm shift
- EC50 (PC12 SOD1^G93A cells [1]; [6]): 0.3 µM

SMILES: C#CCNCc1c(F)c(F)c(N=[N+]=[N-])c(F)c1F [IPC2, N-(4-Azido-2,3,5,6-tetrafluorobenzyl)prop-2-yn-1-amine]
- EC50 (PC12 SOD1^G93A cells [5]): > 16 µM

SMILES: CC1=NN(c2ccccc2)C(=O)C1 [edaravone, reference compound]
- concentration-dependent disappearance of the 25 kDa protein band in competition with PRAPP ([3]; 30 μM PRAPP): did not show a quantifiable concentration-dependent disappearance
